Results as given in ChEMBL document CHEMBL1221163, “Monocarboxylate transporter MCT1 is a target for immunosuppression” (Nat Chem Biol, 2005).
Calls of active or inactive are those of the source. The rule behind the calls is not given here.

Experiments:
PBMC = assay: Antiproliferative activity against human PBMC assessed as inhibition of PMA/ionomycin-stimulated cell proliferation by [3H]thymidine incorporation assay; type: functional, cell-based
[1] = target: T1, Monocarboxylate transporter 1 (Homo sapiens, UniProt P53985); assay: Displacement of [3H]5-[(3-hydroxypropyl)thio]-3-methyl-1-[2-(methyl-t)propyl-2,3-t2]-6-(1-naphthalenylmethyl)-1H-pyrrolo[3,4-d]pyrimidine-2,4(3H,6H)-dione from human MCT1 expressed in INS1 cell membrane; type: cell membranes
T1 sequence (P53985 whole entry): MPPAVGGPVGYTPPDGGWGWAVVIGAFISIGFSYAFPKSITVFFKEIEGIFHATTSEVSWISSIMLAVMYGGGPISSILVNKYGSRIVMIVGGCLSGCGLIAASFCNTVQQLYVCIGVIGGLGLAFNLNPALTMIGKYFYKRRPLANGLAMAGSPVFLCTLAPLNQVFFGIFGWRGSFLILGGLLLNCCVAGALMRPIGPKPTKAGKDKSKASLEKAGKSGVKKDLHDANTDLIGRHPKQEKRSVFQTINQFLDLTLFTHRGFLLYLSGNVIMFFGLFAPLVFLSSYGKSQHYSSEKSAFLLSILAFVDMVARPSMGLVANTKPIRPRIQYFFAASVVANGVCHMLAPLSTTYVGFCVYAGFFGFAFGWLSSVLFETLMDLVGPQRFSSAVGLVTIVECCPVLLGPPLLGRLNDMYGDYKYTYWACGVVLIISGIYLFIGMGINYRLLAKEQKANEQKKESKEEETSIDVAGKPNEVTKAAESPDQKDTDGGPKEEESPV

SW480 [2] = assay: Antiproliferative activity against human SW480 cells assessed as inhibition of cell proliferation at 1 uM by fluorimetric assay; type: functional
HT-29 [3] = assay: Antiproliferative activity against human HT-29 cells assessed as inhibition of cell proliferation by fluorimetric assay; type: functional, cell-based
HT-29 [4] = assay: Antiproliferative activity against human HT-29 cells assessed as inhibition of cell proliferation at 1 uM by fluorimetric assay; type: functional
T-cell [5] = conditions: Homo sapiens, 10 uM
[6] = Antiproliferative activity against human primary epidermal keratinocytes assessed as inhibition of cell proliferation at 1 uM by fluorimetric assay; type: functional; conditions: Keratinocyte
[7] = Antiproliferative activity against human KIT225 cells assessed as inhibition of IL2-stimulated cell proliferation at 1 uM by fluorimetric assay; type: functional
K562 [8] = assay: Antiproliferative activity against human K562 cells assessed as inhibition of cell proliferation at 1 uM by fluorimetric assay; type: functional
PANC-1 [9] = assay: Antiproliferative activity against human PANC1 cells assessed as inhibition of cell proliferation at 1 uM by fluorimetric assay; type: functional
T-24 [10] = assay: Antiproliferative activity against human T24 cells assessed as inhibition of cell proliferation at 1 uM by fluorimetric assay; type: functional
K562 [11] = assay: Antiproliferative activity against human K562 cells assessed as inhibition of cell proliferation by fluorimetric assay; type: functional, cell-based
T-cell [12] = conditions: Homo sapiens, 10 uM; remark: listed apart in the source
[13] = target: T2, Monocarboxylate transporter 3 (Homo sapiens) (UniProt O95907); assay: Inhibition of human MCT3 expressed in INS1 cells assessed as reduction in intracellular acidification at 100 nM after 1 hr by L-Lactate uptake based BCECF staining; type: cell-based
T2 sequence (whole entry): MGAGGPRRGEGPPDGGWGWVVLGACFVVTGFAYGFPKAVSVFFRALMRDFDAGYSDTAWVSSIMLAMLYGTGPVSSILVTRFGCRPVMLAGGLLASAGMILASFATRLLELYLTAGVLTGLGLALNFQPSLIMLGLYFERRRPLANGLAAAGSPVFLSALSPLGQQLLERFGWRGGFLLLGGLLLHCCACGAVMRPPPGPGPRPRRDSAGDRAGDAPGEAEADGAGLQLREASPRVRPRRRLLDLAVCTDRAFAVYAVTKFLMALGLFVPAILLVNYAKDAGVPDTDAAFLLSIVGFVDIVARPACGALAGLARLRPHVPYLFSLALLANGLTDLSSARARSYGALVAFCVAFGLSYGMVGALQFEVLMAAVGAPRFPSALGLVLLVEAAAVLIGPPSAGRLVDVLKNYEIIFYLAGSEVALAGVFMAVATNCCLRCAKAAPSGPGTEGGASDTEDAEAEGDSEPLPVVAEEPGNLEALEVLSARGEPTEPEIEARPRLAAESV

Rattus norvegicus [14] = species: Rattus norvegicus; conditions: DA/Lewis, 4 mg/kg
[15] = Antiproliferative activity against human T cells assessed as inhibition of PMA-ionomycin stimulated cell proliferation after 3 days by [3H]thymidine incorporation assay; type: functional, cell-based
T-cell [16] = assay: Antiproliferative activity against Lewis rat T cells assessed as inhibition of PMA-ionomycin stimulated cell proliferation by [3H]thymidine incorporation assay; type: functional, cell-based
THP-1 [17] = assay: Antiproliferative activity against human THP1 cells assessed as inhibition of cell proliferation at 1 uM by fluorimetric assay; type: functional
T-24 [18] = assay: Antiproliferative activity against human T24 cells assessed as inhibition of cell proliferation by fluorimetric assay; type: functional, cell-based
T-cell [19] = assay: Inhibition of conversion of [1,2-13C2]glucose into [2,3-13C2]lactate in PMA-ionomycin stimulated human T cells at 10 nM after 6 hrs by GC-MS method; type: functional, cell-based
HUVEC [20] = assay: Antiproliferative activity against human HUVEC assessed as inhibition of acidic FGF-stimulated cell proliferation at 1 uM by fluorimetric assay; type: functional
ZR-75-1 [21] = assay: Antiproliferative activity against human ZR-75-1 cells assessed as inhibition of cell proliferation at 1 uM by fluorimetric assay; type: functional
ZR-75-1 [22] = assay: Antiproliferative activity against human ZR-75-1 cells assessed as inhibition of cell proliferation by fluorimetric assay; type: functional, cell-based
T-cell [23] = assay: Antiproliferative activity against human T cells assessed as inhibition of PMA-ionomycin stimulated cell proliferation by [3H]thymidine incorporation assay; type: functional, cell-based
HUVEC [24] = assay: Antiproliferative activity against human HUVEC assessed as inhibition of basic FGF-stimulated cell proliferation at 1 uM by fluorimetric assay; type: functional
HEK293 [25] = assay: Antiproliferative activity against HEK293 cells assessed as inhibition of cell proliferation at 1 uM by fluorimetric assay; type: functional; conditions: Homo sapiens
HUVEC [26] = assay: Antiproliferative activity against human HUVEC assessed as inhibition of basic FGF-stimulated cell proliferation by fluorimetric assay; type: functional, cell-based
Rattus norvegicus [27] = assay: Inhibition of graft-versus-host response-induced lymph node expansion in DA/Lewis recipient rat administered once daily through subcutaneous route; type: functional; conditions: sc
SW480 [28] = assay: Antiproliferative activity against human SW480 cells assessed as inhibition of cell proliferation by fluorimetric assay; type: functional, cell-based
HUVEC [29] = assay: Antiproliferative activity against human HUVEC assessed as inhibition of acidic FGF-stimulated cell proliferation by fluorimetric assay; type: functional, cell-based
[30] = Antiproliferative activity against human primary epidermal keratinocytes assessed as inhibition of cell proliferation by fluorimetric assay; type: functional, cell-based; conditions: Keratinocyte
[31] = target: T3, Monocarboxylate transporter 4 (Homo sapiens) (UniProt O15427); assay: Inhibition of human MCT4 expressed in INS1 cells assessed as reduction in intracellular acidification at 100 nM after 1 hr by L-Lactate uptake based BCECF staining; type: cell-based
T3 sequence (whole entry): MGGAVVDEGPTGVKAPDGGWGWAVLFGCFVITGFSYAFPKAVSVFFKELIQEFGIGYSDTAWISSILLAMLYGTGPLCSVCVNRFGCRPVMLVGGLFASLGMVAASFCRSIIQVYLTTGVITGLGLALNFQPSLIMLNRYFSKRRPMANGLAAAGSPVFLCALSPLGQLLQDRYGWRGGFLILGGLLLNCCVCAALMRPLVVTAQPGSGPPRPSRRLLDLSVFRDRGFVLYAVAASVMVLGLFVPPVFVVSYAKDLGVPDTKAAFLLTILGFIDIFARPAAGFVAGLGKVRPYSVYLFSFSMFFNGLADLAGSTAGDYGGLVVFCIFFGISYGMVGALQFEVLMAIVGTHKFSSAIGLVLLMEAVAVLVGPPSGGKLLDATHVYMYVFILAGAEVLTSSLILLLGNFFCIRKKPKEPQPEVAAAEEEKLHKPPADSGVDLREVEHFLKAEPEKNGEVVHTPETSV

[32] = Antiproliferative activity against human KIT225 cells assessed as inhibition of IL2-stimulated cell proliferation by fluorimetric assay; type: functional, cell-based
PANC-1 [33] = assay: Antiproliferative activity against human PANC1 cells assessed as inhibition of cell proliferation by fluorimetric assay; type: functional, cell-based
T-cell [34] = assay: Increase in intracellular lactate production in PMA-ionomycin stimulated human T cells after 4 hrs; type: functional, cell-based
HEK293 [35] = assay: Antiproliferative activity against HEK293 cells assessed as inhibition of cell proliferation by fluorimetric assay; type: functional, cell-based; conditions: Homo sapiens
THP-1 [36] = assay: Antiproliferative activity against human THP1 cells assessed as inhibition of cell proliferation by fluorimetric assay; type: functional, cell-based
T-cell [37] = conditions: Homo sapiens, 50 nM
T-cell [38] = assay: Inhibition of DNA synthesis in PMA-ionomycin stimulated human T cells after 4 hrs by [3H]thymidine incorporation assay; type: functional, cell-based
T-cell [39] = assay: Reduction in extracellular lactate production in PMA-ionomycin stimulated human T cells after 4 hrs; type: functional, cell-based
[40] = target: T1, Monocarboxylate transporter 1; assay: Displacement of [3H]5-[(3-hydroxypropyl)thio]-3-methyl-1-[2-(methyl-t)propyl-2,3-t2]-6-(1-naphthalenylmethyl)-1H-pyrrolo[3,4-d]pyrimidine-2,4(3H,6H)-dione from MCT1 in human Jurkat cell membranes

Question: Which IC50 (PBMC) does the source give for `CC(C)Cn1c(=O)n(C)c(=O)c2c(SCCCO)c(Cc3ccccc3C(F)(F)F)sc21` here?
Answer: 0.257 nM

Question: For `CC(C)Cc1nn(C)c(=O)c2cn(Cc3ccc(N=[N+]=[N-])c([125I])c3)cc12`, which Ki ([1]; read-out: Ki) is on record?
Answer: 23 nM

Question: With `CC(C)Cn1c(=O)n(C)c(=O)c2c(SCCCO)c(Cc3cccc4ccccc34)sc21` as the molecule, how does the inhibition at 1 µM (SW480 [2]) read?
Answer: < 20%

Question: And the IC50 (HT-29 [3])?
Answer: > 1000 nM

Question: And the inhibition at 1 µM (HT-29 [4])?
Answer: < 20%

Question: And the inhibition (T-cell [5])?
Answer: inactive

Question: And the inhibition at 1 µM [6]?
Answer: < 20%

Question: What about the inhibition at 1 µM [7] of the same molecule?
Answer: 61%

Question: And the inhibition at 1 µM (K562 [8])?
Answer: < 20%

Question: What about the inhibition at 1 µM (PANC-1 [9]) of the same molecule?
Answer: < 20%

Question: What about the inhibition at 1 µM (T-24 [10]) of the same molecule?
Answer: < 20%

Question: What about the IC50 (K562 [11]) of the same molecule?
Answer: > 1000 nM

Question: What about the inhibition (T-cell [12]) of the same molecule?
Answer: inactive

Question: What about the inhibition [13] of the same molecule?
Answer: inactive

Question: What about the inhibition (Rattus norvegicus [14]) of the same molecule?
Answer: Active

Question: What about the IC50 [15] of the same molecule?
Answer: 0.234 nM

Question: What about the inhibition (T-cell [16]) of the same molecule?
Answer: Active

Question: What about the inhibition at 1 µM (THP-1 [17]) of the same molecule?
Answer: < 20%

Question: And the IC50 (T-24 [18])?
Answer: > 1000 nM

Question: And the inhibition (T-cell [19])?
Answer: Active

Question: What about the inhibition at 1 µM (HUVEC [20]) of the same molecule?
Answer: < 20%

Question: What about the inhibition at 1 µM (ZR-75-1 [21]) of the same molecule?
Answer: < 20%

Question: And the IC50 (ZR-75-1 [22])?
Answer: > 1000 nM

Question: And the inhibition (T-cell [23])?
Answer: Active

Question: What about the inhibition at 1 µM (HUVEC [24]) of the same molecule?
Answer: < 20%

Question: And the inhibition at 1 µM (HEK293 [25])?
Answer: < 20%

Question: What about the IC50 (HUVEC [26]) of the same molecule?
Answer: > 1000 nM

Question: And the ED50 (Rattus norvegicus [27])?
Answer: 1.4 mg/kg/day

Question: What about the IC50 (SW480 [28]) of the same molecule?
Answer: > 1000 nM

Question: What about the IC50 (HUVEC [29]) of the same molecule?
Answer: > 1000 nM

Question: And the IC50 [30]?
Answer: > 1000 nM

Question: What about the inhibition [31] of the same molecule?
Answer: inactive

Question: And the IC50 [32]?
Answer: 1.1 nM

Question: What about the IC50 (PANC-1 [33]) of the same molecule?
Answer: > 1000 nM

Question: What about the IC50 (T-cell [34]) of the same molecule?
Answer: 0.407 nM

Question: And the IC50 (HEK293 [35])?
Answer: > 1000 nM

Question: And the IC50 (THP-1 [36])?
Answer: > 1000 nM

Question: What about the inhibition (PBMC) of the same molecule?
Answer: Active

Question: What about the inhibition (T-cell [37]) of the same molecule?
Answer: Active

Question: For `CC(C)Cn1c(=O)n(C)c(=O)c2c(C(=O)N3CCCC3)c(Cc3ccccc3C(F)(F)F)sc21`, which IC50 (T-cell [38]) is on record?
Answer: 10 nM

Question: What about the IC50 (T-cell [39]) of the same molecule?
Answer: 5.37 nM

Question: And the IC50 [15]?
Answer: 2.88 nM

Question: And the IC50 (T-cell [34])?
Answer: 3.31 nM

Question: Which IC50 (T-cell [38]) does the source give for `CC(C)Cn1c(=O)n(C)c(=O)c2c(C(=O)N3CC=CC3)c(Cc3ccccc3C(F)(F)F)sc21` here?
Answer: 11.7 nM

Question: And the IC50 (T-cell [39])?
Answer: 10.2 nM

Question: And the IC50 [15]?
Answer: 12 nM

Question: And the Ki ([1]; read-out: pKi (converted))?
Answer: 10.7 nM

Question: What about the Ki [40] of the same molecule?
Answer: 3.39 nM

Question: And the IC50 (T-cell [34])?
Answer: 4.79 nM
